Data on 7 molecules can be found in patent US10538564B2, “Peptides having osteoblast growth-promoting activity and use thereof” (PHARMA FOODS INTERNATIONAL CO., LTD., priority 2014, dated 2020).

In test [1] the test system is mature female rats (eight months old). Briefly: Bone formation-promoting effect in mature rats. In kind it is in vivo, rat. Conditions: No. 1 oral 1, 10 or 100 mg/kg·day, alendronate 300 μg/kg subcutaneous, 20 weeks, vs control group. Here is the method:
Synthetic peptide No. 1 was administered to mature female rats (eight months old, ten rats in each group) by oral gavage using a gastric tube once a day for 20 weeks. The dose of the synthetic peptide was 1, 10 or 100 mg/kg·day.

Test [2] relates to mouse osteoblast-like cell line MC3T3-E1 Subclone-4. Briefly: Osteoblast growth-promoting activity (cell counting method). Conditions: synthetic peptides at 2.5, 5 or 10 μg/mL; 72 hours; relative to PBS (−) group taken as 100; FIGS. 9 to 12. In kind it is cell-based. Here is the method: A mouse osteoblast-like cell line MC3T3-E1 Subclone-4 (ATCC No. CRL-2593) was cultured in α-MEM medium supplemented with 10% FBS at 5% CO2 and 95% air at 37° C. until confluent. The cells were collected by trypsinization. The collected cells were suspended at 1×10^4 cells/mL in fresh α-MEM medium. One mL of the cell suspension was seeded in each well of a 24-well plate, and precultured at 5% CO2 and 95% air at 37° C. On the next day, the medium was replaced with medium prepared by well mixing 50 μL of a sample or PBS (−) with 950 μL of fresh α-MEM medium supplemented with CaCl2 to a Ca concentration of 500 μg/mL. The cells were further cultured for 72 hours. The growth activity of osteoblasts was measured by the cell counting method. The activity of the sample for promoting the growth of osteoblasts was expressed in terms of the relative value, with the growth rate in the PBS (−) group taken as 100. Osteoblast growth-promoting activity was determined for the synthetic peptides in the same manner as in Example 1. The synthetic peptides were added at 2.5, 5 or 10 μg/mL per well. As a control, PBS (−) was added. The osteoblast growth-promoting activity was expressed in terms of the relative value, with the growth rate in the PBS (−) group taken as 100.

Test [3] deals with mouse-derived chondrogenic cell line ATDC5. Put plainly: Chondrocyte growth-promoting activity (Cell Counting Kit-8). In kind it is cell-based. To be noted: 10 nmol/mL; 72 hours; relative to control taken as 100%; FIG. 14. As to the method:
This study was performed using mouse-derived chondrogenic cell line ATDC5 (RIKEN BANK, RBC0565). ATDC5 cells in the logarithmic growth phase were suspended at 3×10^4 cells/mL in Eagle MEM medium supplemented with 5% FCS (fetal calf serum), and 100 μL of the cell suspension was seeded in each well of a 96-well plate and precultured at 5% CO2 and 95% air at 37° C. On the next day, the medium in each well was removed, and medium containing the synthetic peptide (No. 1 or No. 6) at 10 nmol/mL was added. The cells were cultured for 72 hours. As a control, medium without a synthetic peptide was added. The reaction solution ([…]) of Cell Counting Kit-8 (Dojindo Laboratories) was added to each well. The plate was incubated for 3 hours, and the absorbance at 450 nm was measured with a microplate reader. The activity of the synthetic peptides for promoting the growth of chondrocytes was expressed in terms of the relative value, with the absorbance (growth rate) in the control group taken as 100%.
A general note: Tetrazolium dyes change colour on reduction, which living cells bring about.

Test [4] has as its system mouse-derived cell line ATDC5. Put plainly: Hyaluronic acid production-promoting activity (ELISA of culture supernatant). In kind it is cell-based. To be noted: 10 nmol/mL; supernatant after 48 hours of culture; FIG. 15. Here is the method:
This study was performed using the mouse-derived cell line ATDC5 as used in Example 4. ATDC5 cells in the logarithmic growth phase were seeded at 2×10^4 cells/mL per well in a 24-well plate containing DMEM/F-12 (1:1) medium supplemented with 5% FCS (fetal calf serum), 10 μg/mL transferrin and 3×10^−8 M sodium selenite. The cells were precultured at 5% CO2 and 95% air at 37° C. On the next day, the medium in each well was removed, and medium containing the synthetic peptide (No. 1 or No. 6) at 10 nmol/mL was added. The cells were cultured for […]. As a control, medium without a synthetic peptide was added. After 48 hours of culture, the culture supernatants were collected, and their hyaluronic acid concentrations were measured using QnE Hyaluronic Acid ELISA Assay (Biotech Trading Partners). The concentrations of hyaluronic acid in the culture supernatants of the synthetic peptide addition group were calculated by subtracting the absorbance of the background from the absorbance of the supernatants, and fitting the resulting values to the reference curve prepared using the standard.
In general terms: An ELISA detects its analyte on a solid surface through an enzyme-linked reagent.

Test [5] has as its system Crlj:W1 male rats at four weeks old. Put plainly: Bone formation in growth cartilage and primary cancellous bone, 7-day oral administration. In kind it is in vivo, rat. Conditions: No. 1 oral 100 mg/kg-day, hGH 500 μg/kg-day subcutaneous, seven days. Here is the method:
One of the synthetic peptides (No. 1) or water for injection (control) was administered to Crlj:W1 male rats at four weeks old by oral gavage using a gastric tube once a day for seven days (n=3 in each group). The dose of the synthetic peptide (No. 1) was 100 mg/kg-day. As a positive control, human growth hormone (hGH) (Norditropin, Standard Commodity Classification No. of Japan: 872412) was subcutaneously administered at 500 μg/kg-day once a day for seven days. As fluorescent labels for the site of bone formation, tetracycline (20 mg/kg) was subcutaneously administered on day 4 after the administration of the peptide or control, and then calcein (10 mg/kg) was subcutaneously administered on day 6 after the administration of the peptide or control. After the administration of the test sample on day 7, the rats were kept under fasting conditions. Twenty-four hours later, the blood was collected. The rats were then euthanized by bloodletting under anesthesia, and the tibiae were harvested (see FIG. 16). Non-decalcified specimens of the proximal tibiae were prepared and photographed under a fluorescent microscope (BX-53, OLYMPUS). The bone morphology was measured using a morphometry system (Histometry RT digitizer, System Supply Co., Ltd.) and an analysis software (CSS-840 cancellous bone morphometry version, System Supply Co., Ltd.). The longitudinal growth rate (Lo.G.R.) in the growth cartilage, which is the increase in the height per day, was determined by measuring the distance between the tetracycline label and the calcein label, and dividing the distance by the administration interval between the fluorescent labels (two days).
The increase in the level of IGF-1, which is related to growth of the bones and muscles in a growth phase, may contribute to the bone growth-promoting effect.

Test [6] has the same test system. Put plainly: Bone formation in growth cartilage and secondary cancellous bone, 21-day oral administration. In kind it is in vivo, rat. Conditions: No. 1 oral 100 mg/kg·day, hGH 500 μg/kg·day subcutaneous; 21 days; FIG. 21. As to the method:
One of the synthetic peptides (No. 1) or water for injection (control) was administered to Crlj:W1 male rats at four weeks old by oral gavage using a gastric tube once a day for 21 days (n=3 in each group). The dose of the synthetic peptide was 100 mg/kg·day. As a positive control, human growth hormone (hGH) (Norditropin, Standard Commodity Classification No. of Japan: 872412) was subcutaneously administered at 500 μg/kg·day once a day for 21 days. As fluorescent labels for the site of bone formation, tetracycline (20 mg/kg) was subcutaneously administered on day 18 after the administration of the peptide or control, and then calcein (10 mg/kg) was subcutaneously administered on day 20 after the administration of the peptide or control. After the administration of the test sample on day 21, the rats were kept under fasting conditions. Twenty-four hours later, the rats were euthanized by bloodletting under anesthesia, and the tibiae were harvested (see FIG. 20). Non-decalcified specimens of the proximal tibiae were prepared and photographed under a fluorescent microscope (BX-53, OLYMPUS). The bone morphology was measured using a morphometry system (Histometry RT digitizer, System Supply Co., Ltd.) and an analysis software (CSS-840 cancellous bone morphometry version, System Supply Co., Ltd.). The longitudinal growth rate (Lo.G.R.) in the epiphyseal cartilage, which is the increase in the height per day, was determined by measuring the distance between the tetracycline label and the calcein label, and dividing the distance by the administration interval between the fluorescent labels (two days).

Test [7] shares this test system. Briefly: Mineral apposition rate in secondary cancellous bone, 7-day oral administration. In kind it is in vivo, rat. Conditions: No. 1 oral 1, 10 or 100 mg/kg-day, hGH 500 μg/kg·day subcutaneous; seven days; FIG. 26. As to the method:
One of the synthetic peptides (No. 1) or water for injection (control) was administered to Crlj:W1 male rats at four weeks old by oral gavage using a gastric tube once a day for seven days (n=10 in each group). The dose of the synthetic peptide was 1, 10 or 100 mg/kg-day. As a positive control, human growth hormone (hGH) (Norditropin, Standard Commodity Classification No. of Japan: 872412) was subcutaneously administered at 500 μg/kg·day once a day for seven days. As fluorescent labels for the site of bone formation, tetracycline (20 mg/kg) was subcutaneously administered on day 4 after the administration of the peptide or control, and then calcein (10 mg/kg) was subcutaneously administered on day 6 after the administration of the peptide or control. After the administration of the test sample on day 7, the rats were kept under fasting conditions. Twenty-four hours later, the rats were euthanized by bloodletting under anesthesia, and the tibiae were harvested. Non-decalcified specimens of the proximal tibiae were prepared and photographed under a fluorescent microscope (BX-53, OLYMPUS). The bone morphology was measured using a morphometry system (Histometry RT digitizer, System Supply Co., Ltd.) and an analysis software (CSS-840 cancellous bone morphometry version, System Supply Co., Ltd.). The mineral apposition rate (MAR), per day, in the secondary cancellous bone was determined by measuring the distance between the tetracycline label and the calcein label in the secondary cancellous bone, and dividing the distance by the administration interval between the fluorescent labels (two days). […] The increase in the mineral apposition rate in the secondary cancellous bone in the No. 1 administration group would have resulted from the increase in the number of osteoblasts.

No end group written: not given here.

For the molecule `NCCCC(O)(P(=O)(O)O)P(=O)(O)O` [alendronate, alendronate sodium hydrate, reference compound], in test [1], the “cancellous bone volume in the proximal tibial metaphysis” value is listed as “significantly increased”.
As to DESSPYE [No. 4], the osteoblast growth-promoting activity entry in test [2] is given as “promoted the growth of osteoblasts in a concentration-dependent manner”.
On the same count and under the same terms, under EDESSPYE [No. 5] stands “promoted the growth of osteoblasts in a concentration-dependent manner”.
Take Pro-Glu-Ser-Glu-Glu (PESEE) [No. 3]: the osteoblast growth-promoting activity result in test [2] is on record as “promoted the growth of osteoblasts in a concentration-dependent manner”.
Regarding VNPESEE [No. 2], the osteoblast growth-promoting activity result in test [2] was “promoted the growth of osteoblasts in a concentration-dependent manner”.
VNPESEEEDESSPYE [No. 6]: in test [2], the osteoblast growth-promoting activity entry is given as “promoted the growth of osteoblasts in a concentration-dependent manner”. For the same molecule, the chondrocyte growth-promoting activity entry in test [3] is “showed chondrocyte growth-promoting effect”. For the same molecule, the “hyaluronic acid production-promoting activity (hyaluronic acid concentration in culture supernatant)” value in test [4] is reported as “showed hyaluronic acid production-promoting effect”.
As for “hGH: human growth hormone (hGH) (Norditropin), positive control, subcutaneously administered [reference compound]”, the “serum level of insulin-like growth factor (IGF-1)” value in test [5] (ELISA, FIG. 19) is “higher than that in the control group”. Also, the “longitudinal growth rate (Lo.G.R.) in the growth cartilage, vs control group” value in test [5] (FIG. 17) was “significant promotion of bone growth as compared with the control group”. Further, in test [6], the “longitudinal growth rate (Lo.G.R.) in the epiphyseal cartilage, vs control group” value is on record as “significant promotion of bone growth as compared with the control group”. The “mineral apposition rate (MAR) in the secondary cancellous bone, vs control group” value in test [7] was “significant increase in the mineral apposition rate”.
